Among the data in PubChem BioAssay (NCI) are GI50 and TGI values, retold here.

Each structure is given as a SMILES string.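 1) Cells in 96-well plates. 2) Compound, 48 h, 5 concentrations. 3) Linear interpolation between surrounding doses. 4) Unreached endpoint = highest concentration. GI50 is the concentration that inhibits growth by half. TGI is the concentration that stops growth completely.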

Among the test systems are CCRF-CEM leukemia; HOP-62 NSCLC; HOP-92 NSCLC; KM12 colon; NCI-H23 lung; NCI-H460 lung; SF-295 CNS; SF-539 CNS; SK-MEL-2 melanoma; SK-OV-3 ovarian.
Holding throughout (assay): DTP human tumour cell line panel, 48 h

Take `COc1ccc(-c2cncn2-c2cc(OC)c(OC)c(OC)c2)cc1`: the GI50 was 0.843 µM in the test with CCRF-CEM leukemia; 0.101 µM in the test with HOP-62 NSCLC; 3.3 µM with HOP-92 NSCLC; 0.0224 µM with KM12 colon; 0.659 µM with NCI-H23 lung; 0.367 µM in the test on NCI-H460 lung. Moreover, the GI50 was 0.0311 µM in the test with SF-295 CNS, 0.0671 µM in the test with SF-539 CNS, 0.045 µM with SK-MEL-2 melanoma and 0.256 µM with SK-OV-3 ovarian. For the same compound, the TGI with CCRF-CEM leukemia was 18.5 µM; in the test with HOP-62 NSCLC, over 71.6 µM; with HOP-92 NSCLC, over 61 µM; with KM12 colon, 1.53 µM; in the test on NCI-H23 lung, over 43.7 µM; in the test on NCI-H460 lung, over 84.6 µM. The TGI in the test on SF-295 CNS was over 14.8 µM; with SF-539 CNS, 0.46 µM; in the test on SK-MEL-2 melanoma, over 100 µM; in the test on SK-OV-3 ovarian it was over 86.5 µM.
In the case of `COC(=O)c1c(-c2cccs2)oc(-c2cccs2)c1C(=O)OC`, the GI50 with CCRF-CEM leukemia was 27.4 µM; in the test with HOP-62 NSCLC it was 32.8 µM; in the test with HOP-92 NSCLC it was 31.9 µM; in the test with KM12 colon, 32.5 µM; with NCI-H23 lung, 29.6 µM; in the test with NCI-H460 lung, 33.1 µM. Further, the GI50 in the test on SF-295 CNS was 19.4 µM; in the test on SF-539 CNS, 84.4 µM; in the test with SK-MEL-2 melanoma it was 39.5 µM; in the test with SK-OV-3 ovarian, over 100 µM. Moreover, the TGI in the test with CCRF-CEM leukemia was over 100 µM; in the test on HOP-62 NSCLC, over 100 µM; with HOP-92 NSCLC it was over 100 µM; in the test on KM12 colon, over 100 µM; in the test with NCI-H23 lung, 97.7 µM; with NCI-H460 lung, over 100 µM. Also, the concentration for total growth inhibition (TGI) with SF-295 CNS is 51.8 µM; in the test with SF-539 CNS it was over 100 µM; with SK-MEL-2 melanoma it was over 100 µM; with SK-OV-3 ovarian it was over 100 µM.
Regarding `CS(=O)(=O)OCCCNCCCOS(C)(=O)=O`, the concentration for total growth inhibition (TGI) in the test on CCRF-CEM leukemia came out at 3130 µM; in the test on HOP-62 NSCLC, 6030 µM; in the test with HOP-92 NSCLC, 4400 µM; in the test on KM12 colon, 5510 µM; with NCI-H23 lung, 5630 µM; with NCI-H460 lung, 2450 µM. Further, the TGI was 4760 µM in the test on SF-295 CNS, 5170 µM in the test on SF-539 CNS, 3690 µM with SK-MEL-2 melanoma and 7470 µM in the test with SK-OV-3 ovarian.
Turning to `O=C(C(=O)n1ncc(Cl)c(Cl)c1=O)n1ncc(Cl)c(Cl)c1=O`, the concentration for total growth inhibition (TGI) in the test on CCRF-CEM leukemia was 29.7 µM; in the test on HOP-62 NSCLC it was over 100 µM; in the test on HOP-92 NSCLC, 49.9 µM; in the test with KM12 colon it was over 100 µM; in the test on NCI-H23 lung, 41.5 µM; in the test on NCI-H460 lung, over 100 µM. Besides, the total growth inhibition concentration (TGI) with SF-295 CNS is over 100 µM; in the test with SF-539 CNS, over 68.8 µM; in the test on SK-MEL-2 melanoma, 74.9 µM; with SK-OV-3 ovarian, over 100 µM.
For the compound `CCOC(=O)/C(=C/c1cccc(Cl)c1)N(CC)CC`, the total growth inhibition concentration (TGI) was over 100 µM in the test with CCRF-CEM leukemia; 77.8 µM in the test with HOP-62 NSCLC; 84.2 µM in the test on HOP-92 NSCLC; over 100 µM in the test with KM12 colon; over 100 µM in the test with NCI-H23 lung; over 100 µM with NCI-H460 lung. In addition, the TGI with SF-295 CNS was over 100 µM; in the test with SF-539 CNS, over 100 µM; in the test with SK-MEL-2 melanoma, 68.5 µM; in the test with SK-OV-3 ovarian, over 100 µM.
As for `CN(C)CCCn1c(=O)c2ccccc2c2cnc3[nH]ccc3c21`, the GI50 was 1.53 µM in the test with CCRF-CEM leukemia; 1.49 µM in the test with HOP-62 NSCLC; 1.8 µM in the test with HOP-92 NSCLC; 1.63 µM in the test on KM12 colon; 1.76 µM with NCI-H23 lung; 0.8 µM in the test on NCI-H460 lung. Moreover, the GI50 with SF-295 CNS is 1.18 µM; in the test on SF-539 CNS, 2.34 µM; in the test on SK-MEL-2 melanoma it was 1.79 µM; in the test on SK-OV-3 ovarian it was 1.97 µM. Further, the total growth inhibition concentration (TGI) with CCRF-CEM leukemia amounted to 8.44 µM; with HOP-62 NSCLC, 5.72 µM; in the test with HOP-92 NSCLC, 8.16 µM; with KM12 colon, 9.78 µM; in the test with NCI-H23 lung it was 6.62 µM; in the test with NCI-H460 lung, 2.62 µM. Also, the TGI with SF-295 CNS came to 6.65 µM; with SF-539 CNS, 7.04 µM; with SK-MEL-2 melanoma, 5.38 µM; with SK-OV-3 ovarian it was 7.11 µM.
`[N-]=[N+]=NCC(O)Cn1cnc2c(NC(=O)c3ccccc3)ncnc21` (stereo not given): the concentration for total growth inhibition (TGI) in the test on CCRF-CEM leukemia, in the test on HOP-62 NSCLC, with HOP-92 NSCLC, with KM12 colon, with NCI-H23 lung and with NCI-H460 lung was over 100 µM throughout. The TGI in the test with SF-295 CNS, with SF-539 CNS and in the test with SK-MEL-2 melanoma was over 100 µM throughout.
Regarding `C#CC1=CC(=O)C(OC)=CC1=O`, the TGI with CCRF-CEM leukemia is 30.8 µM; in the test on HOP-62 NSCLC, 36.6 µM; with HOP-92 NSCLC, 34 µM; with KM12 colon it was over 100 µM; with NCI-H23 lung, 60 µM; in the test on NCI-H460 lung, over 100 µM. Also, the TGI with SF-295 CNS was over 100 µM; in the test with SF-539 CNS, over 100 µM; in the test on SK-MEL-2 melanoma, 33.7 µM; in the test on SK-OV-3 ovarian, over 100 µM.
For the compound `COc1ccc(C(=O)c2cc(C)c(OC)c(C)c2)c(OC)c1NC(C)=O`, the GI50 with CCRF-CEM leukemia was 2.4 µM; in the test on HOP-62 NSCLC it was 0.239 µM; in the test on HOP-92 NSCLC, 1.02 µM; in the test on KM12 colon it was 0.153 µM; in the test with NCI-H23 lung it was 0.369 µM; in the test with NCI-H460 lung, 0.3 µM. For the same compound, the concentration for 50% growth inhibition (GI50) in the test on SF-295 CNS is 0.046 µM; in the test with SF-539 CNS, 0.214 µM; in the test on SK-MEL-2 melanoma, over 100 µM; in the test on SK-OV-3 ovarian, 0.0674 µM. Further, the concentration for total growth inhibition (TGI) in the test with CCRF-CEM leukemia was over 100 µM; in the test on HOP-62 NSCLC, over 100 µM; in the test on HOP-92 NSCLC it was over 100 µM; in the test with KM12 colon, over 100 µM; in the test with NCI-H23 lung, over 100 µM; in the test with NCI-H460 lung, over 33.9 µM. The TGI was over 100 µM in the test on SF-295 CNS, 0.848 µM with SF-539 CNS, over 100 µM in the test with SK-MEL-2 melanoma and over 100 µM with SK-OV-3 ovarian.
Take `COc1ccc(/C=C/c2c(C(=O)/C=C/c3ccc(C(F)(F)F)cc3)c(C)nc3ccccc23)cc1`: the GI50 was 0.425 µM in the test with CCRF-CEM leukemia; 1.62 µM with HOP-92 NSCLC; 2.12 µM with KM12 colon; 1.87 µM in the test with NCI-H460 lung; 1.71 µM in the test with SF-295 CNS; 1.85 µM in the test with SF-539 CNS. For the same compound, the GI50 in the test with SK-MEL-2 melanoma was 2.05 µM; with SK-OV-3 ovarian, 2.24 µM. Further, the concentration for total growth inhibition (TGI) in the test with CCRF-CEM leukemia is over 100 µM; in the test with HOP-92 NSCLC, 3.59 µM; in the test with KM12 colon, 5.09 µM; with NCI-H460 lung, 4.22 µM; with SF-295 CNS, 3.28 µM; in the test on SF-539 CNS, 3.34 µM. Further, the TGI with SK-MEL-2 melanoma amounted to 4.64 µM; in the test on SK-OV-3 ovarian, 5.82 µM.
